# Measurements as given in PMC7349888, “Synthesis and Evaluation of Dodecaboranethiol Containing Kojic Acid (KA-BSH) as a Novel Agent for Boron Neutron Capture Therapy” (Cells, 2020).
# Several values for one entry are separate records, joined by “and”; a condition that tells them apart may be missing. Equal entries are not always repeated.
# How the values were obtained:
# [1] = test system: F98 glioma bearing rats; assay: In vivo BNCT therapeutic experiment, neutron irradiation at KURRI; set-up: species or system rat
# Text: All animal experimental procedures were approved by the Animal Use Review Board and Ethical Committee of Osaka Medical College (No. 25092, 28 October 2015) and Kyoto University Research Reactor Institute (KURRI, No. 25030-13, 1 April 2015), and performed following the Guide for the Care and Use of Laboratory Animals. Eight-week-old, male Fischer 344 rats weighing between 200 and 250 g were used (Japan SLC, Inc. Shizuoka, Japan). Rats were anesthetized with an intraperitoneal (ip) injection of a mixture of medetomidine 0.15 mg, midazolam 2 mg, and butorphanol 2.5 mg/kg body weight (bw). The head of each rat was fixed with a stereotactic frame (Model 900; David Kopf Instruments, Tujunga, CA, USA). The scalp was incised at the midline and a small burr hole was drilled into the skull (1 mm posterior and 4 mm right-lateral to the bregma), using an electric drill. And then, F98 glioma cells were injected into the brain using a 25 µL Hamilton microsyringe with a 26-gauge needle (model 1700 RN, Hamilton Bonaduz AG, Bonaduz, Switzerland). The needle was inserted at a 5 mm depth from the skull and F98 cells were diluted in 10 µL of DMEM containing low-gelling temperature agarose at a concentration of either 10^3 for therapeutic experiments or 10^5 cells for biodistribution experiments. They were injected over 30 s using an automatic infuser pump. The needle entry hole was immediately sealed with bone wax and the incised scalp was closed with 3-0 silk sutures (Ethicon, North Ryde, NSW). […]
# Therapeutic experiments for BNCT were performed 14 days after stereotactic implantation of 10^3 F98 glioma cells. […] The therapeutic effect of BNCT was evaluated by the survival time of the animals. […]
# The means and standard deviations (SD) were computed for ^10B concentrations of F98 glioma cells and tissues of Fischer rats bearing intracerebral implants of the F98 glioma. […] Statistical differences between means were calculated using the Student’s unpaired t-test. In therapeutic experiments, the median survival time (MST) was calculated for each group using the Kaplan–Meier estimate. […]
# [2] = test system: F98 glioma bearing rats; assay: Biodistribution in F98 glioma bearing rats (ICP-AES); format: in vivo, rat; conditions: iv
# Text: All animal experimental procedures were approved by the Animal Use Review Board and Ethical Committee of Osaka Medical College (No. 25092, 28 October 2015) and Kyoto University Research Reactor Institute (KURRI, No. 25030-13, 1 April 2015), and performed following the Guide for the Care and Use of Laboratory Animals. Eight-week-old, male Fischer 344 rats weighing between 200 and 250 g were used (Japan SLC, Inc. Shizuoka, Japan). Rats were anesthetized with an intraperitoneal (ip) injection of a mixture of medetomidine 0.15 mg, midazolam 2 mg, and butorphanol 2.5 mg/kg body weight (bw). The head of each rat was fixed with a stereotactic frame (Model 900; David Kopf Instruments, Tujunga, CA, USA). The scalp was incised at the midline and a small burr hole was drilled into the skull (1 mm posterior and 4 mm right-lateral to the bregma), using an electric drill. And then, F98 glioma cells were injected into the brain using a 25 µL Hamilton microsyringe with a 26-gauge needle (model 1700 RN, Hamilton Bonaduz AG, Bonaduz, Switzerland). The needle was inserted at a 5 mm depth from the skull and F98 cells were diluted in 10 µL of DMEM containing low-gelling temperature agarose at a concentration of either 10^3 for therapeutic experiments or 10^5 cells for biodistribution experiments. They were injected over 30 s using an automatic infuser pump. The needle entry hole was immediately sealed with bone wax and the incised scalp was closed with 3-0 silk sutures (Ethicon, North Ryde, NSW). After surgery, all animals were given atipamezole hydrochloride (0.15 mg/kg bw, ip).
# Biodistribution studies were performed in Fischer rats bearing intracerebral implants of F98 rat glioma cells. 10–13 days after tumor implantation of 10^5 F98 glioma cells, when signs of a progressively growing tumor were evident (weight loss, lethargy, hunching, and ataxia), biodistribution studies were initiated at which time the animals had tumors weighing 90–180 mg. […] To compare its biodistribution with that of BPA or BSH, another group of rats received an iv injection of BPA at a concentration of 10 mg ^10B/kg bw or BSH at a concentration of 30 mg ^10B/kg bw. Biodistribution was determined 1 and 3 h after termination of iv injection. Animals were euthanized by an overdose of sevoflurane following which tumors and normal tissues, consisting of ipsilateral brain, contralateral brain, blood, heart, lung, liver, spleen, kidney, skin, and muscle, were removed and weighed for ^10B determination by ICP-AES.
# [3] = 10 mg 10B/kg iv, BNCT 1 h after administration
substance,measurement,setting,value
S-(2-(5-hydroxy-4-oxo-4H-pyran-2-yl) methyl) Thioundecahydro-Closo- Dodecaborate (2-) Disodium Salt [KA-BSH],"Survival Time, Median (MST)",[1]; [3],36.0 days
same,"Survival Time, Range",[1]; [3],32 – 38
same,%ILS Median (percent increase life span),[1]; relative to median survival time of untreated controls,22.0%
same,"10B concentration, Blood","[2]; 10 mg 10B/kg, 1 h",4.71 µg 10B/g
same,"10B concentration, Contralateral brain","[2]; 10 mg 10B/kg, 1 h",0.24 µg 10B/g
same,"10B concentration, Heart","[2]; 10 mg 10B/kg, 1 h",1.18 µg 10B/g
same,"10B concentration, Ipsilateral brain","[2]; 10 mg 10B/kg, 1 h",0.29 µg 10B/g
same,"10B concentration, Liver","[2]; 10 mg 10B/kg, 1 h",5.15 µg 10B/g
same,"10B concentration, Lung","[2]; 10 mg 10B/kg, 1 h",4.31 µg 10B/g
same,"10B concentration, Muscle","[2]; 10 mg 10B/kg, 1 h",0.63 µg 10B/g
same,"10B concentration, Skin","[2]; 10 mg 10B/kg, 1 h",1.79 µg 10B/g
same,"10B concentration, Spleen","[2]; 10 mg 10B/kg, 1 h",14.34 µg 10B/g
same,"10B concentration, Tumor","[2]; 10 mg 10B/kg, 1 h",1.42 µg 10B/g and 1.42 ± 0.28 µg 10B/g
same,T/Bl (tumor to blood ratio),"[2]; 10 mg 10B/kg, 1 h",0.31
same,T/Br (tumor to normal contralateral brain ratio),"[2]; 10 mg 10B/kg, 1 h",5.99
same,"10B concentration, Blood","[2]; 10 mg 10B/kg, 3 h",1.26 µg 10B/g
same,"10B concentration, Contralateral brain","[2]; 10 mg 10B/kg, 3 h",0.09 µg 10B/g
same,"10B concentration, Heart","[2]; 10 mg 10B/kg, 3 h",0.29 µg 10B/g
same,"10B concentration, Ipsilateral brain","[2]; 10 mg 10B/kg, 3 h",0.10 µg 10B/g
same,"10B concentration, Liver","[2]; 10 mg 10B/kg, 3 h",4.13 µg 10B/g
same,"10B concentration, Lung","[2]; 10 mg 10B/kg, 3 h",0.74 µg 10B/g
same,"10B concentration, Muscle","[2]; 10 mg 10B/kg, 3 h",0.19 µg 10B/g
same,"10B concentration, Skin","[2]; 10 mg 10B/kg, 3 h",0.45 µg 10B/g
same,"10B concentration, Spleen","[2]; 10 mg 10B/kg, 3 h",16.07 µg 10B/g
same,"10B concentration, Tumor","[2]; 10 mg 10B/kg, 3 h",0.85 µg 10B/g
same,T/Bl (tumor to blood ratio),"[2]; 10 mg 10B/kg, 3 h",0.69
same,T/Br (tumor to normal contralateral brain ratio),"[2]; 10 mg 10B/kg, 3 h",9.52
same,"10B concentration, Blood","[2]; 20 mg 10B/kg, 1 h",8.76 µg 10B/g
same,"10B concentration, Contralateral brain","[2]; 20 mg 10B/kg, 1 h",0.24 µg 10B/g
same,"10B concentration, Heart","[2]; 20 mg 10B/kg, 1 h",2.10 µg 10B/g
same,"10B concentration, Ipsilateral brain","[2]; 20 mg 10B/kg, 1 h",0.31 µg 10B/g
same,"10B concentration, Liver","[2]; 20 mg 10B/kg, 1 h",10.25 µg 10B/g
same,"10B concentration, Lung","[2]; 20 mg 10B/kg, 1 h",6.11 µg 10B/g
same,"10B concentration, Muscle","[2]; 20 mg 10B/kg, 1 h",2.35 µg 10B/g
same,"10B concentration, Skin","[2]; 20 mg 10B/kg, 1 h",3.56 µg 10B/g
same,"10B concentration, Spleen","[2]; 20 mg 10B/kg, 1 h",10.30 µg 10B/g
same,"10B concentration, Tumor","[2]; 20 mg 10B/kg, 1 h",2.96 µg 10B/g
same,T/Bl (tumor to blood ratio),"[2]; 20 mg 10B/kg, 1 h",0.34
same,T/Br (tumor to normal contralateral brain ratio),"[2]; 20 mg 10B/kg, 1 h",13.21
same,"10B concentration, Blood","[2]; 20 mg 10B/kg, 3 h",1.54 µg 10B/g
same,"10B concentration, Contralateral brain","[2]; 20 mg 10B/kg, 3 h",0.09 µg 10B/g
same,"10B concentration, Heart","[2]; 20 mg 10B/kg, 3 h",0.39 µg 10B/g
same,"10B concentration, Ipsilateral brain","[2]; 20 mg 10B/kg, 3 h",0.14 µg 10B/g
same,"10B concentration, Liver","[2]; 20 mg 10B/kg, 3 h",5.40 µg 10B/g
same,"10B concentration, Lung","[2]; 20 mg 10B/kg, 3 h",1.37 µg 10B/g
same,"10B concentration, Muscle","[2]; 20 mg 10B/kg, 3 h",0.24 µg 10B/g
same,"10B concentration, Skin","[2]; 20 mg 10B/kg, 3 h",0.57 µg 10B/g
same,"10B concentration, Spleen","[2]; 20 mg 10B/kg, 3 h",8.44 µg 10B/g
same,"10B concentration, Tumor","[2]; 20 mg 10B/kg, 3 h",1.47 µg 10B/g
same,T/Bl (tumor to blood ratio),"[2]; 20 mg 10B/kg, 3 h",1.12
same,T/Br (tumor to normal contralateral brain ratio),"[2]; 20 mg 10B/kg, 3 h",21.07
same,10B concentration in blood,"[2]; 30 mg 10B/kg, 1 h",14.21 ± 3.17 µg/mL
same,"10B concentration, Blood","[2]; 30 mg 10B/kg, 1 h",14.21 µg 10B/g
same,"10B concentration, Contralateral brain","[2]; 30 mg 10B/kg, 1 h",0.45 µg 10B/g
same,"10B concentration, Heart","[2]; 30 mg 10B/kg, 1 h",3.45 µg 10B/g
same,"10B concentration, Ipsilateral brain","[2]; 30 mg 10B/kg, 1 h",0.63 µg 10B/g
same,"10B concentration, Liver","[2]; 30 mg 10B/kg, 1 h",10.33 ± 2.61 µg 10B/g and 10.33 µg 10B/g
same,"10B concentration, Lung","[2]; 30 mg 10B/kg, 1 h",9.27 µg 10B/g
same,"10B concentration, Muscle","[2]; 30 mg 10B/kg, 1 h",2.26 µg 10B/g
same,"10B concentration, Skin","[2]; 30 mg 10B/kg, 1 h",7.25 µg 10B/g
same,"10B concentration, Spleen","[2]; 30 mg 10B/kg, 1 h",3.77 µg 10B/g
same,"10B concentration, Tumor","[2]; 30 mg 10B/kg, 1 h",6.65 µg 10B/g and 6.65 ± 0.25 µg 10B/g
same,T/Bl (tumor to blood ratio),"[2]; 30 mg 10B/kg, 1 h",0.49
same,T/Br (tumor to normal contralateral brain ratio),"[2]; 30 mg 10B/kg, 1 h",15.27
same,10B concentration in blood,"[2]; 30 mg 10B/kg, 3 h",2.35 ± 1.37 µg/mL
same,"10B concentration, Blood","[2]; 30 mg 10B/kg, 3 h",2.35 µg 10B/g
same,"10B concentration, Contralateral brain","[2]; 30 mg 10B/kg, 3 h",0.14 µg 10B/g
same,"10B concentration, Heart","[2]; 30 mg 10B/kg, 3 h",0.56 µg 10B/g
same,"10B concentration, Ipsilateral brain","[2]; 30 mg 10B/kg, 3 h",0.35 µg 10B/g
same,"10B concentration, Liver","[2]; 30 mg 10B/kg, 3 h",4.19 ± 1.79 µg 10B/g and 4.19 µg 10B/g
same,"10B concentration, Lung","[2]; 30 mg 10B/kg, 3 h",2.26 µg 10B/g
same,"10B concentration, Muscle","[2]; 30 mg 10B/kg, 3 h",0.32 µg 10B/g
same,"10B concentration, Skin","[2]; 30 mg 10B/kg, 3 h",1.06 µg 10B/g
same,"10B concentration, Spleen","[2]; 30 mg 10B/kg, 3 h",5.68 µg 10B/g
same,"10B concentration, Tumor","[2]; 30 mg 10B/kg, 3 h",2.91 µg 10B/g
same,T/Bl (tumor to blood ratio),"[2]; 30 mg 10B/kg, 3 h",1.58
same,T/Br (tumor to normal contralateral brain ratio),"[2]; 30 mg 10B/kg, 3 h",23.09
same,clearance from normal tissues,[2]; 1 vs 3 h,rapid clearance from normal tissues
same,"10B Concentrations, Brain (Table 1)","[2]; 1 h, used for dose estimation",0.3 μg 10B/g
same,"10B Concentrations, Tumor (Table 1)","[2]; 1 h, used for dose estimation",1.4 μg 10B/g
